Source: patent publication US20220323406A1, “METHODS AND COMPOSITIONS FOR DIFFERENTIATING STEM CELLS” (Massachusetts Institute of Technology, priority 2019, published 2022)

Key:
[1] = system: ENR+CD organoids (ISC to Paneth cell differentiation); test: Primary screen: basal (non-stimulated) lysozyme secretion LYZ.NS, 2.5-D 384-well ENR+CD organoid differentiation; type: cell-based, mouse
Excerpt: (§1) High-throughput screening.

[2] = system: ENR+CD organoids (ISC to Paneth cell differentiation); test: Primary screen: CCh-stimulated lysozyme secretion LYZ.S, 2.5-D 384-well ENR+CD organoid differentiation; type: cell-based, mouse; conditions: primary screen
Excerpt: as §1

ENR+CD organoids = test: Primary screen: ATP (CellTiter-Glo 3D, CTG) cell number/viability, 2.5-D 384-well ENR+CD organoids;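 further: compounds given at plating and again on day 3 over a 6-day differentiation from ENR+CV stem-cell-enriched precursors, ATP measured on day 6, plate median as control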
[3] = primary screen, standard z score, dose 0.08 uM
[4] = primary screen, standard z score, dose 0.40 uM
[5] = primary screen, standard z score, dose 2.00 uM
[6] = primary screen, standard z score, dose 10.00 uM
[7] = primary screen, dose 0.08 uM, FC relative to plate median
[8] = primary screen, dose 0.08 uM, standard z score
[9] = primary screen, dose 0.40 uM, FC relative to plate median
[10] = primary screen, dose 0.40 uM, standard z score
[11] = primary screen, dose 2.00 uM, FC relative to plate median
[12] = primary screen, dose 2.00 uM, standard z score
[13] = primary screen, dose 10.00 uM, FC relative to plate median
[14] = primary screen, dose 10.00 uM, standard z score
[15] = primary screen; dose 0.08 uM; FC vs plate median
[16] = primary screen; dose 0.40 uM; FC vs plate median
[17] = primary screen; dose 2.00 uM; FC vs plate median
[18] = primary screen; dose 10.00 uM; FC vs plate median

SMILES | Dose.FC.LYZ.NS ([1]; primary screen, dose 0.08 uM) [log2 fold change] | Z.LYZ.NS (standard z score) ([1]; primary screen, dose 0.08 uM) | Dose.FC.LYZ.NS ([1]; primary screen, dose 0.40 uM) [log2 fold change] | Z.LYZ.NS (standard z score) ([1]; primary screen, dose 0.40 uM) | Dose.FC.LYZ.NS ([1]; primary screen, dose 2.00 uM) [log2 fold change] | Z.LYZ.NS (standard z score) ([1]; primary screen, dose 2.00 uM) | Dose.FC.LYZ.NS ([1]; primary screen, dose 10.00 uM) [log2 fold change] | Z.LYZ.NS (standard z score) ([1]; primary screen, dose 10.00 uM) | Dose.FC.LYZ.S ([2]; dose 0.08 uM) [log2 fold change] | Dose.FC.LYZ.S ([2]; dose 0.40 uM) [log2 fold change] | Dose.FC.LYZ.S ([2]; dose 2.00 uM) [log2 fold change] | Dose.FC.LYZ.S ([2]; dose 10.00 uM) [log2 fold change] | Dose.FC.CTG (ENR+CD organoids; primary screen, dose 0.08 uM) [log2 fold change] | Z.CTG (standard z score) (ENR+CD organoids; primary screen, dose 0.08 uM) | Dose.FC.CTG (ENR+CD organoids; primary screen, dose 0.40 uM) [log2 fold change] | Z.CTG (standard z score) (ENR+CD organoids; primary screen, dose 0.40 uM) | Dose.FC.CTG (ENR+CD organoids; primary screen, dose 2.00 uM) [log2 fold change] | Z.CTG (standard z score) (ENR+CD organoids; primary screen, dose 2.00 uM) | Dose.FC.CTG (ENR+CD organoids; primary screen, dose 10.00 uM) [log2 fold change] | Z.CTG (standard z score) (ENR+CD organoids; primary screen, dose 10.00 uM) | further results
CC(C)c1c(C(=O)Nc2ccccc2)c(-c2ccccc2)c(-c2ccc(F)cc2)n1CC[C@@H](O)C[C@@H](O)CC(=O)[O-].CC(C)c1c(C(=O)Nc2ccccc2)c(-c2ccccc2)c(-c2ccc(F)cc2)n1CC[C@@H](O)C[C@@H](O)CC(=O)[O-].[Ca+2] [Atorvastatin Calcium] | −0.009 | −0.077 | 0.007 | 0.062 | −0.247 | −2.148 | −0.235 | −2.045 | 0.022 | −0.062 | −0.354 | −0.305 | −0.129 | −0.309 | −0.348 | −0.831 | −1.085 | −2.591 | −1.583 | −3.780 | –
CCO.N#CC(=C(/N)Sc1ccccc1N)/C(C#N)=C(\N)Sc1ccccc1N [U0126-EtOH] | 0.099 | 0.859 | 0.019 | 0.163 | −0.045 | −0.389 | −0.117 | −1.021 | 0.114 | 0.075 | −0.071 | −0.165 | −0.350 | −0.835 | −0.514 | −1.227 | −0.476 | −1.138 | −0.790 | −1.887 | –
CC(C)(C)c1nc(-c2cccc(NS(=O)(=O)c3c(F)cccc3F)c2F)c(-c2ccnc(N)n2)s1 [Dabrafenib (GSK2118436)] | 0.095 | – | 0.049 | – | −0.001 | – | −0.250 | – | 0.236 | 0.103 | 0.019 | −0.384 | −0.134 | – | 0.011 | – | −0.279 | – | −0.800 | – | Z.LYZ.NS [1, 3]: 0.830; Z.LYZ.NS [1, 4]: 0.427; Z.LYZ.NS [1, 5]: −0.006; Z.LYZ.NS [1, 6]: −2.178; Z.CTG (ENR+CD organoids; [3]): −0.320; Z.CTG (ENR+CD organoids; [4]): 0.026; Z.CTG (ENR+CD organoids; [5]): −0.667; Z.CTG (ENR+CD organoids; [6]): −1.911
Oc1c2ccccc2c2c3c(cccc13)N=N2 [SP600125] | – | – | – | – | – | – | – | – | – | – | – | – | – | – | – | – | – | – | – | – | Dose.FC.LYZ.NS [1, 7]: 0.135 log2 fold change; Z.LYZ.NS [1, 8]: 1.174; Dose.FC.LYZ.NS [1, 9]: 0.027 log2 fold change; Z.LYZ.NS [1, 10]: 0.232; Dose.FC.LYZ.NS [1, 11]: 0.152 log2 fold change; Z.LYZ.NS [1, 12]: 1.321; Dose.FC.LYZ.NS [1, 13]: 0.022 log2 fold change; Z.LYZ.NS [1, 14]: 0.187; Dose.FC.LYZ.S ([2]; dose 0.08 uM, FC relative to plate median): 0.188 log2 fold change; Dose.FC.LYZ.S ([2]; dose 0.40 uM, FC relative to plate median): 0.092 log2 fold change; Dose.FC.LYZ.S ([2]; dose 2.00 uM, FC relative to plate median): 0.090 log2 fold change; Dose.FC.LYZ.S ([2]; dose 10.00 uM, FC relative to plate median): 0.084 log2 fold change; Dose.FC.CTG (ENR+CD organoids; [7]): 0.197 log2 fold change; Dose.FC.CTG (ENR+CD organoids; [9]): 0.145 log2 fold change; Dose.FC.CTG (ENR+CD organoids; [11]): 0.103 log2 fold change; Dose.FC.CTG (ENR+CD organoids; [13]): −0.020 log2 fold change
Cc1ccc([C@@H]2O[C@H](CO)[C@@H](O)[C@H](O)[C@H]2O)cc1Cc1ccc(-c2ccc(F)cc2)s1 [Canagliflozin] | −0.027 | – | −0.046 | – | 0.025 | – | −0.064 | – | 0.014 | −0.032 | 0.028 | −0.033 | −0.240 | – | −0.098 | – | 0.042 | – | −0.079 | – | Z.LYZ.NS [1, 3]: −0.233; Z.LYZ.NS [1, 4]: −0.398; Z.LYZ.NS [1, 5]: 0.214; Z.LYZ.NS [1, 6]: −0.556; Z.CTG (ENR+CD organoids; [3]): −0.572; Z.CTG (ENR+CD organoids; [4]): −0.235; Z.CTG (ENR+CD organoids; [5]): 0.101; Z.CTG (ENR+CD organoids; [6]): −0.188
O=c1cc(N2CCOCC2)oc2c1ccc1ccccc12 [NU7026] | – | – | – | – | – | – | – | – | – | – | – | – | – | – | – | – | – | – | – | – | Z.LYZ.NS [1, 8]: 0.198; Z.LYZ.NS [1, 10]: 0.198; Z.LYZ.NS [1, 12]: −0.507; Z.LYZ.NS [1, 14]: −1.380; Dose.FC.LYZ.NS [1, 15]: 0.023 log2 fold change; Dose.FC.LYZ.NS [1, 16]: 0.023 log2 fold change; Dose.FC.LYZ.NS [1, 17]: −0.058 log2 fold change; Dose.FC.LYZ.NS [1, 18]: −0.158 log2 fold change; Dose.FC.LYZ.S ([2]; dose 0.08 uM, FC vs plate median): 0.021 log2 fold change; Dose.FC.LYZ.S ([2]; dose 0.40 uM, FC vs plate median): 0.034 log2 fold change; Dose.FC.LYZ.S ([2]; dose 2.00 uM, FC vs plate median): −0.056 log2 fold change; Dose.FC.LYZ.S ([2]; dose 10.00 uM, FC vs plate median): −0.198 log2 fold change; Z.CTG (ENR+CD organoids; [8]): 0.230; Z.CTG (ENR+CD organoids; [10]): 0.248; Z.CTG (ENR+CD organoids; [12]): 0.255; Z.CTG (ENR+CD organoids; [14]): −0.284; Dose.FC.CTG (ENR+CD organoids; [15]): 0.096 log2 fold change; Dose.FC.CTG (ENR+CD organoids; [16]): 0.104 log2 fold change; Dose.FC.CTG (ENR+CD organoids; [17]): 0.107 log2 fold change; Dose.FC.CTG (ENR+CD organoids; [18]): −0.119 log2 fold change
CC[C@H](NC(=O)[C@H](C)NC)C(=O)N1C[C@@H](O)C[C@H]1Cc1c(-c2[nH]c3cc(F)ccc3c2C[C@@H]2C[C@H](O)CN2C(=O)[C@H](CC)NC(=O)[C@H](C)NC)[nH]c2cc(F)ccc12 [Birinapant] | 0.032 | 0.281 | −0.012 | −0.102 | 0.036 | 0.317 | −0.029 | −0.256 | 0.075 | 0.103 | 0.011 | −0.080 | −0.257 | – | 0.095 | – | 0.227 | – | 0.123 | – | –
C[C@@H]1CCN(C(=O)CC#N)C[C@@H]1N(C)c1ncnc2[nH]ccc12 [Tofacitinib (CP-690550, Tasocitinib)] | −0.017 | −0.146 | −0.015 | −0.132 | −0.007 | −0.061 | −0.004 | −0.036 | 0.022 | 0.010 | 0.025 | 0.010 | 0.130 | 0.312 | 0.249 | 0.595 | 0.117 | 0.278 | 0.236 | 0.563 | –
C[C@H](Cn1cnc2c(N)ncnc21)OCP(=O)(O)O [Tenofovir] | 0.077 | 0.673 | −0.076 | −0.662 | −0.132 | −1.153 | −0.218 | −1.899 | 0.045 | −0.080 | −0.171 | −0.271 | 0.019 | 0.045 | −0.084 | −0.200 | −0.129 | −0.308 | −0.337 | −0.804 | –
